Reference: patent US20240246967A1, “AXL COMPOUNDS” (ARCUS BIOSCIENCES, INC., priority 2021, published 2024)

Biological target: T1, Axl (Homo sapiens, UniProt P30530)
T1 sequence (P30530 26-894): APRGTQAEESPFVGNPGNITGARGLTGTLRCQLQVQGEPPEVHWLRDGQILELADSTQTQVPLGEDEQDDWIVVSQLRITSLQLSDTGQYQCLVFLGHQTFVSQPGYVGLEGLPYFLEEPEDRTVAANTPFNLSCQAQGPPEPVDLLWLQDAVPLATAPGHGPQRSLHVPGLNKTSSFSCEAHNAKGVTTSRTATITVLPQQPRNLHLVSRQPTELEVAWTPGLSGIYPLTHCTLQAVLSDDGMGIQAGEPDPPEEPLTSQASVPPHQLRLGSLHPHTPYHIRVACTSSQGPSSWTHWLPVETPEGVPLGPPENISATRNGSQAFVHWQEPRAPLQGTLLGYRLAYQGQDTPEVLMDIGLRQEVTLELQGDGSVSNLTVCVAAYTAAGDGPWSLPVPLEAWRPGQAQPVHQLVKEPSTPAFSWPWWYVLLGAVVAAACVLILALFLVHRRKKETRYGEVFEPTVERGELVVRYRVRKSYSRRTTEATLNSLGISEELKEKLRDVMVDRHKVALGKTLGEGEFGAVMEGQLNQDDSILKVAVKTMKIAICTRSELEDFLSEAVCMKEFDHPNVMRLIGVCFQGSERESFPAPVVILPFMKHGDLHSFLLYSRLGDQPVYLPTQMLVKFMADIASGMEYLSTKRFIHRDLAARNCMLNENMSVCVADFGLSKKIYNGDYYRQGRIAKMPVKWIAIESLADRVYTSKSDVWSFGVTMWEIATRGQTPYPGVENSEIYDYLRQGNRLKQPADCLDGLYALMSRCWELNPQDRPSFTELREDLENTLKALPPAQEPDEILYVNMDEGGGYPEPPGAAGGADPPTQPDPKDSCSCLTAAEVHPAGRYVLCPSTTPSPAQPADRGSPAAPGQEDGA
Assay: Axl NanoBRET intracellular kinase assay (intracellular binding, Cell Binding)
Parameters: host or cells: HEK-293
Conditions: HEK-293 cells transfected with Axl-NanoLuc fusion vector; 0.35 μM K-5 NanoBRET tracer
Procedure: Axl NanoBRET™ intracellular kinase assay (Promega, N2540) was performed according to manufacturer's recommendation. In brief, HEK-293 cells are transiently transfected with Axl-NanoLuc fusion vector (Promega, NV1071), utilizing Fugene HD transfection reagent (Promega, E2311) a day before experiment following manufacturer's recommendation.
The day of the assay, the cells were collected and resuspended in Opti-MEM media (ThermoFisher, 31985070) at 2e5 cells/mL concentration. Testing compounds were serial diluted and dispensed into a white 384 well polystyrene plate at 200 nL in 100% DMSO. 40 μL of resuspended cells is then added per well for a final condition of 8K cells/well with 0.5% DMSO. After one-hour compound pre-incubation at 37° C. and 5% CO2, cells were further incubated with 0.35 μM K-5 NanoBRET tracer for two-hours at 37° C. and 5% CO2. […] of 3× substrate plus Inhibitor solution was prepared according to kits manual and added to the cells followed by a 30 second pulse centrifugation spin. The plate was then immediately read utilizing an Envision (Perkin Elmer) plate reader. The BRET signal is measured by taking the ratio of the emissions reading at 610 nm and 450 nm. Compound binding is based on the decrease BRET signal caused by the displacement of the K-5 tracer. […] IC50 value of compounds was determined by 4-parameter non-linear regression fitting of percent activity in GraphPad Prism software.

IC50 [nM] | SMILES
< 100 | C[C@@H]1CCCN1C1(C)CCc2ccc(-c3cnc4[nH]cc(-c5ccc(S(=O)(=O)C6CC6)cc5)c4c3)cc2CC1 (stereo partly drawn) [Example 105, (2R)-1-(2-{3-[4-(Cyclopropanesulfonyl)phenyl]-1H-pyrrolo[2,3-b]pyridin-5-yl}-7-methyl-6,7,8,9-tetrahydro-5H-benzo[7]annulen-7-yl)-2-methylpyrrolidine]
> 1000 | CC(C)(O)c1ccc(-c2n[nH]c3ncc(-c4ccc5c(c4)CCC4(CCCN4)CC5)cc23)cc1Cl (centres unmarked) [Example 96, 2-[2-Chloro-4-(5-{5,6,8,9-tetrahydrospiro[benzo[7]annulene-7,2′-pyrrolidin]-3-yl}-1H-pyrazolo[3,4-b]pyridin-3-yl)phenyl]propan-2-ol]
< 100 | O=S(=O)(c1ccc(-c2n[nH]c3ncc(-c4ccc5c(c4)CC[C@@H](N4CCCC4)CC5)cc23)cc1)C1CC1 [Example 40, (S)-3-(4-(Cyclopropylsulfonyl)phenyl)-5-(7-(pyrrolidin-1-yl)-6,7,8,9-tetrahydro-5H-benzo[7]annulen-2-yl)-1H-pyrazolo[3,4-b]pyridine]
< 100 | C[C@@H]1CCCN1C1(C)CCc2ccc(-c3cnc4[nH]nc(-c5ccc(C(=O)N6CCCC6)cc5)c4c3)cc2CC1 (stereo partly drawn) [Example 118, (2R)-2-Methyl-1-(7-methyl-2-{3-[4-(pyrrolidine-1-carbonyl)phenyl]-1H-pyrazolo[3,4-b]pyridin-5-yl}-6,7,8,9-tetrahydro-5H-benzo[7]annulen-7-yl)pyrrolidine]
> 1000 | C[C@@H]1CCCN1[C@H]1CCc2cc(-c3cnc4[nH]nc(-c5ccc(S(=O)(=O)C6CC6)cc5)c4c3)cnc2CC1 [Example 102, (2R)-1-[(7S)-3-{3-[4-(Cyclopropanesulfonyl)phenyl]-1H-pyrazolo[3,4-b]pyridin-5-yl}-5H,6H,7H,8H,9H-cyclohepta[b]pyridin-7-yl]-2-methylpyrrolidine]
< 100 | Cc1cc(-c2n[nH]c3ncc(-c4ccc5c(c4)CCC(N4CCCC4)CC5)cc23)ccc1C(=O)N1CCNCC1 (centres unmarked) [Example 47, 1-(2-Methyl-4-{5-[7-(pyrrolidin-1-yl)-6,7,8,9-tetrahydro-5H-benzo[7]annulen-2-yl]-1H-pyrazolo[3,4-b]pyridin-3-yl}benzoyl)piperazine]
< 100 | Cc1cc(-c2n[nH]c3ncc(-c4ccc5c(c4)CC[C@@H](N4CCCC4)CC5)cc23)cc(Cl)c1C(N)=O [Example 50, 2-Chloro-6-methyl-4-{5-[(7S)-7-(pyrrolidin-1-yl)-6,7,8,9-tetrahydro-5H-benzo[7]annulen-2-yl]-1H-pyrazolo[3,4-b]pyridin-3-yl}benzamide]
< 100 | CN(C)C(=O)c1ccc(-c2n[nH]c3ncc(-c4ccc5c(c4)CC[C@@H](N4C6COCC4C6)CC5)cc23)cc1 [Example 125, N,N-Dimethyl-4-{5-[(7S)-7-{3-oxa-6-azabicyclo[3.1.1]heptan-6-yl}-6,7,8,9-tetrahydro-5H-benzo[7]annulen-2-yl]-2H-pyrazolo[3,4-b]pyridin-3-yl}benzamide]
< 100 | C[C@@H]1CCCN1C1(C)CCc2ccc(-c3cnc4[nH]nc(-c5ccc(C(C)(C)O)c(Cl)c5)c4c3)cc2CC1 (stereo partly drawn) [Example 57, 2-[2-Chloro-4-(5-{7-methyl-7-[(2R)-2-methylpyrrolidin-1-yl]-6,7,8,9-tetrahydro-5H-benzo[7]annulen-2-yl}-1H-pyrazolo[3,4-b]pyridin-3-yl)phenyl]propan-2-ol]
100 to 1000 | CS(=O)(=O)c1ccc(-c2n[nH]c3ncc(-c4ccc5c(c4)CCN(C4CCCC4)CC5)cc23)cc1Cl [Example 31, 7-(3-(3-Chloro-4-(methylsulfonyl)phenyl)-1H-pyrazolo[3,4-b]pyridin-5-yl)-3-cyclopentyl-2,3,4,5-tetrahydro-1H-benzo[d]azepine]
< 100 | COCCS(=O)(=O)c1ccc(-c2n[nH]c3ncc(-c4ccc5c(c4)CCC(C)(N4CCC[C@H]4C)CC5)cc23)cc1 (stereo partly drawn) [Example 111, (2R)-1-(2-{3-[4-(2-Methoxyethanesulfonyl)phenyl]-1H-pyrazolo[3,4-b]pyridin-5-yl}-7-methyl-6,7,8,9-tetrahydro-5H-benzo[7]annulen-7-yl)-2-methylpyrrolidine]
< 100 | C[C@@H]1CCCN1C1(C)CCc2ccc(-c3cnc4[nH]nc(-c5ccc(S(=O)(=O)N6CCC6)cc5)c4c3)cc2CC1 (stereo partly drawn) [Example 104, (2R)-1-(2-{3-[4-(Azetidine-1-sulfonyl)phenyl]-1H-pyrazolo[3,4-b]pyridin-5-yl}-7-methyl-6,7,8,9-tetrahydro-5H-benzo[7]annulen-7-yl)-2-methylpyrrolidine]
< 100 | O=C1CCCN1c1ccc(-c2n[nH]c3ncc(-c4ccc5c(c4)CC[C@@H](N4C6COCC4C6)CC5)cc23)cc1 [Example 122, 1-(4-{5-[(7S)-7-{3-oxa-6-azabicyclo[3.1.1]heptan-6-yl}-6,7,8,9-tetrahydro-5H-benzo[7]annulen-2-yl]-2H-pyrazolo[3,4-b]pyridin-3-yl}phenyl)pyrrolidin-2-one]
< 100 | C[C@@H]1CCCN1C1CCc2ccc(-c3cnc4[nH]nc(-c5ccc(S(C)(=O)=O)cc5)c4c3)cc2CC1 (stereo partly drawn) [Example 38, 5-(7-((R)-2-Methylpyrrolidin-1-yl)-6,7,8,9-tetrahydro-5H-benzo[7]annulen-2-yl)-3-(4-(methylsulfonyl)phenyl)-1H-pyrazolo[3,4-b]pyridine]
100 to 1000 | CC1(N2CCc3ccc(-c4cnc5[nH]nc(-c6ccc(S(=O)(=O)C7CC7)cc6)c5c4)cc3CC2)CCCC1 [Example 120, 7-{3-[4-(Cyclopropanesulfonyl)phenyl]-1H-pyrazolo[3,4-b]pyridin-5-yl}-3-(1-methylcyclopentyl)-2,3,4,5-tetrahydro-1H-3-benzazepine]
> 1000 | COCCN1CCc2ccc(-c3cnc4[nH]nc(-c5ccc(C(C)(C)O)c(Cl)c5)c4c3)cc2CC1 [Example 34, 2-(2-Chloro-4-(5-(3-(2-methoxyethyl)-2,3,4,5-tetrahydro-1H-benzo[d]azepin-7-yl)-1H-pyrazolo[3,4-b]pyridin-3-yl)phenyl)propan-2-ol]
100 to 1000 | CS(=O)(=O)N1CCC(c2n[nH]c3ncc(-c4ccc5c(c4)CCC(N4CCCC4)CC5)cc23)CC1 (centres unmarked) [Example 23, 1-Methanesulfonyl-4-{5-[7-(pyrrolidin-1-yl)-6,7,8,9-tetrahydro-5H-benzo[7]annulen-2-yl]-1H-pyrazolo[3,4-b]pyridin-3-yl}piperidine]
< 100 | C[C@@H]1CCCN1C1(C)CCc2ccc(-c3cnc4[nH]nc(-c5ccc(S(=O)(=O)C6CC6)c(F)c5)c4c3)cc2CC1 (stereo partly drawn) [Example 25, (2R)-1-(2-{3-[4-(Cyclopropanesulfonyl)-3-fluorophenyl]-1H-pyrazolo[3,4-b]pyridin-5-yl}-7-methyl-6,7,8,9-tetrahydro-5H-benzo[7]annulen-7-yl)-2-methylpyrrolidine]
100 to 1000 | COC1CCN(S(=O)(=O)c2ccc(-c3n[nH]c4ncc(-c5ccc6c(c5)CCC(C)(N5CCC[C@H]5C)CC6)cc34)cc2)CC1 (stereo partly drawn) [Example 103, 3-(4-((4-Methoxypiperidin-1-yl)sulfonyl)phenyl)-5-(7-methyl-7-((R)-2-methylpyrrolidin-1-yl)-6,7,8,9-tetrahydro-5H-benzo[7]annulen-2-yl)-1H-pyrazolo[3,4-b]pyridine]
100 to 1000 | O=C([C@@H]1CCCN1)N1CCc2ccc(-c3cnc4[nH]nc(-c5ccc(S(=O)(=O)C6CC6)cc5)c4c3)cc2CC1 [Example 112, 7-{3-[4-(Cyclopropanesulfonyl)phenyl]-1H-pyrazolo[3,4-b]pyridin-5-yl}-3-[(2S)-pyrrolidine-2-carbonyl]-2,3,4,5-tetrahydro-1H-3-benzazepine]
